Assay results: US20060111335A1, “Photoactivated anti-viral and anti-cancer agent” (priority 2002, published 2006)

Columns and labels:
[1] = Reversed phase HPLC elution on C8 column as measure of hydrophobicity; format: physicochemical
Description: Reversed phase high performance liquid chromatography (RP-HPLC) was carried out on C8 columns. Compounds were tested using 20%, 30% and 45% acetonitrile in 100 mM ammonium acetate at pH 5.4 for elution on a C8 column, with the intention of achieving an elution time of about 15 minutes. It was expected that the more hydrophobic a compound, the higher the acetonitrile content one would need for the eluent.

φX-174 plasmid DNA = experiment: Photonicking of φX-174 plasmid DNA, gel electrophoresis; format: biochemical; conditions: for photonicking of φX-174 plasmid DNA: Example IX, dark and upon exposure to light
Description: Photolysis with φX-174 Plasmid DNA. Metal complex solutions (with or without quenchers) were saturated with oxygen or argon prior to irradiation. The solutions were further degassed after being mixed with the plasmid. The final solution concentrations were: DPPZPHEN ([…]), φX-174 plasmid DNA (205 μM in base pairs), superoxide dismutase (25 μg/mL), 2-propanol (0.5 M), mannitol (6.25 mM), histidine (8 mM).
Experiments were conducted as described in Example X to evaluate the amount photonicking that occurred in the dark and upon exposure to light for 37TMBP, 56TMBP, OCTBP, BISNMe2, TMOBP, TIOBP, TPBP, BISTAP and BISDPPZ.

[2] = Photodestruction (photoaquation) with visible light >500 nm, HPLC analysis; format: physicochemical; conditions: 0.1 mM aqueous, 8 hours under argon
Description: Aqueous solutions (3 mL, 0.1 mM) of the Rh complexes were irradiated for 8 hours under argon using a 450 W Hanovia medium pressure mercury lamp filtered through a uranium yellow glass (cut-off<330 nm) and a 1.5 cm 0.5% (w/v) aqueous solution of K2Cr2O7 (0% transmittance≦500 nm). Photodestruction of the metal complexes was followed by HPLC analysis.

[3] = Dark thermal aquation and thermal base hydrolysis; format: physicochemical; conditions: 80° C. with 10% NaOH
Description: A dissociation/addition mechanism is generally accepted as responsible for the substitution chemistry associated with a hexacoordinated Rh(III) ligand field triplet (Weiland et al., Inorg. Chem., 25:4893 (1986)). The dissociation step is due to the promotion of an electron from the t2g orbital to the eg orbital, which leads to significant weakening of the metal ligand bonds. (Hipps et al., Inorg. Chem., 13:1544 (1974)).

cell membrane = experiment: Cell uptake / passage through the cell membrane
Description: OCTBP uptake by KB cells. 11 mg of OCTBP was dissolved in 40 mL of PBS buffer. The solution was vortex stirred for 5 minutes to completely dissolve the solid. The solution was sterile filtered through a 0.2μ nylon syringe filter. The concentration of the solution was determined by measuring the UV absorption at 353 nm (ε353nm=1565 M^−1cm^−1).
Once the cells were 75% confluent media was decanted from the flasks and 8 mL of drug solutions were added to three flasks and 8 mL of PBS buffer solution was added to the control flask. The flasks were incubated at 37° C. for 15, 30 and 45 minutes. Control flask was incubated for 45 minutes. When the flasks were removed, they were washed with 6×10 mL of PBS buffer solution. All the liquid was carefully decanted from the flasks. 1 mL of lysing buffer (1% triton X-100) was added to each of the four flasks. The walls of the flasks were rinsed using disposable pipettes. Once all the contents of the flasks were placed into a 1.5 mL disposable centrifuge tubes (each flask yielded ˜1.2 mL), the tubes were centrifuged at 6000 rpm and at 4° C. for 30 minutes on the Fisher Model 59V high-speed centrifuge. BCA Assay was done to establish the amount of cells in each flask.
Rh content of each flask was determined using an inductively coupled plasma (ICP) instrument (AtomScan16, Thermo Elemental, Franklin, Mass.). From each centrifuge tube 1 mL was pipetted and 370 μL of concentrated HCl was added to form a 10% solution. The samples were heated in a hot water bath at 70° C. for 30 minutes. The samples were centrifuged again and the supernatant liquid was diluted to 8 mL by adding nano-pure water. The samples were analyzed for Rh content by ICP.

cells = experiment: Phototoxicity, summary statement of Example XII; format: cell-based
Calf thymus DNA = experiment: Dark association with DNA, UV-Visible titration (Example XI); format: binding; conditions: 50 mM pH 7 I=0.15 sodium phosphate buffer (physiological condition)
Description: Preparation of DNA solution. Calf thymus DNA (Sigma) was dissolved in 50 mM, pH 7, I=0.15 sodium phosphate buffer (Physiological condition) and sonicated. The purity of the DNA was checked by monitoring the absorption spectrum and the ratio of the absorbance at 260 to 280 nm. The ratio were within the acceptable purity margin (1.8±0.1). The concentration of the Calf thymus DNA per phosphate was determined spectrophotometrically: ε253=6600 for calf thymus DNA^1. The concentration was 2.13 E-3 M.
The resulting solution was diluted 4 times with phosphate buffer. […] 0, 50 μL, 150 μL, 200 μL, 300 μL, 350 μL and 500 μL of DNA solutions were added, mixed well with a small disposable needle, and spectra were recorded again. The concentration of the species, the apparent absorbance at 337 nm, and the apparent extinction coefficients at 337 nm were determined from the absorptions spectra and tabulated in Table 1.
The apparent binding constant, Kapp was determined from the plot of [DNA]/Δεapp versus [DNA], where Δεapp=εf−εapp and Δε=εf−εb^2, where εb and εf correspond to the extinction coefficient of the DNA-bound form of the OCTBP derivatives and the extinction coefficient of the DNA-unbound OCTBP derivatives, respectively. […] Cb=(εfCtotal−Aobserved)/Δε The concentration of the DNA-unbound OCTBP derivatives (Cf) can be determined by Cf=Ctotal−Cb […]

nucleic acid = conditions: irradiated with light; cited from earlier work
DNA = system: DNA; parameters: association with DNA in the dark: dose or concentration left out as unconfirmed; conditions: cited from earlier work
Sindbis virus = conditions: cited from earlier work
[4] = system: naked infectious DNA from phages S13 and G4; conditions: cited from earlier work
KB cells = conditions: delivered to cells by liposome; cited from earlier work
CT DNA = experiment: Dark interaction of DPPZPHEN with CT DNA, UV-Vis absorption titration at 380 nm; format: binding, calf
Description: General. The quantity of DNA was determined by the Burton assay (Burton, Biochem. J., 62:315-322 (1956)), and its rhodium content was quantitated using flame atomic absorption spectroscopy (AA). The equilibrium constant for interaction between DPPZPHEN and CT-DNA in the dark was calculated from UV-Vis absorption titration measurements at 380 nm (Wolfe et al., Biochem., 26:6392-6396 (1987); Schemel et al., Biopolymers, 10:465-480 (1971)). Cell viability was determined using the MTT assay (Denizot et al., J. Immunol. Methods, 89:271-277 (1986)). SINV was purified on sucrose gradients as previously described (Owen et al., J. Virol., 70:2757-2763 (1996)). The titer was generally 7-8 log10 pfu/mL at the beginning of each experiment.
Interaction of DPPZPHEN with DNA. […] An intrinsic binding constant of […] 3.4×10^5 M^−1 was calculated using the molar extinction coefficient at the λmax (380 nm) at each titration point.

bacteriophage φ6 = conditions: cited from earlier work
[5] = system: KB (human nasopharingeal carcinoma) cells; conditions: cited from earlier work
[6] = system: HeLa (human cervical carcinoma) cells; conditions: cited from earlier work
[7] = 45% acetonitrile in 100 mM ammonium acetate pH 5.4

[Cl-].[Cl][Rh+]12([Cl])([N]3C=CC=c4c3c3c(c5nccnc45)=CC=C[N]31)[N]1C=CC=c3c1c1c(c4nccnc34)=CC=C[N]12
elution time [1, 7]: 8 to 10 min

Cc1c(C)c2c3c4c1=CC=C[N]4[Rh+]1([Cl])([Cl])([N]3C=CC=2)[N]2C=CC=c3c(C)c(C)c4c(c32)[N]1C=CC=4.[Cl-] [56TMBP, cis-dichlorobis(5,6-dimethyl-1,10-phenanthroline) rhodium(III) chloride]
photonicking of φX-174 plasmid DNA (φX-174 plasmid DNA): Only TPBP, BISTAP, BISDPPZ and BISDPPHEN complexes were found to photonick

COC1=c2ccc3c4c2[N](C=C1)[Rh+]1([Cl])([Cl])([N]4C=CC=3OC)[N]2C=CC(OC)=c3ccc4c(c32)[N]1C=CC=4OC.[Cl-] [TMOBP, cis-dichlorobis(4,7-dimethoxy-1,10-phenanthroline) rhodium(III) chloride]
photonicking of φX-174 plasmid DNA (φX-174 plasmid DNA): Only TPBP, BISTAP, BISDPPZ and BISDPPHEN complexes were found to photonick
elution time [1, 7]: about 15 minutes

[Cl-].[Cl][Rh+]12([Cl])([N]3C=CC(c4ccccc4)=c4ccc5c(c43)[N]1C=CC=5c1ccccc1)[N]1C=CC(c3ccccc3)=c3ccc4c(c31)[N]2C=CC=4c1ccccc1 [TPBP, cis-dichlorobis(4,7-diphenyl-1,10-phenanthroline) rhodium(III) chloride]
photonicking of φX-174 plasmid DNA (φX-174 plasmid DNA): found to photonick
elution time [1, 7]: around 30 minutes

CC(C)OC1=c2ccc3c4c2[N](C=C1)[Rh+]1([Cl])([Cl])([N]4C=CC=3OC(C)C)[N]2C=CC(OC(C)C)=c3ccc4c(c32)[N]1C=CC=4OC(C)C.[Cl-] [TIOBP, cis-dichlorobis(3,7-diisopropoxy-1,10 phenanthroline) rhodium(III) chloride]
photonicking of φX-174 plasmid DNA (φX-174 plasmid DNA): Only TPBP, BISTAP, BISDPPZ and BISDPPHEN complexes were found to photonick
elution time [1, 7]: about 15 minutes

CC1=c2ccc3c4c2[N](C=C1)[Rh+]1([Cl])([Cl])([N]4C=CC=3C)[N]2C=CC(C)=c3ccc4c(c32)[N]1C=CC=4C.[Cl-] [37TMBP]
photodestruction [2]: 6.1 % loss
photonicking of φX-174 plasmid DNA (φX-174 plasmid DNA): Only TPBP, BISTAP, BISDPPZ and BISDPPHEN complexes were found to photonick
thermal hydrolysis, rank order [3]: OCTBP≅37TMBP>BISPHEN

CN(C)C1=c2ccc3c4c2[N](C=C1)[Rh+]1([Cl])([Cl])([N]4C=CC=3N(C)C)[N]2C=CC(N(C)C)=c3ccc4c(c32)[N]1C=CC=4N(C)C.[Cl-] [BISNMe2, cis-dichlorobis(N,N-dimethylamino)-1,10-phenanthroline} rhodium(III) chloride]
ability to pass through the cell membrane (cell membrane): able to pass through the cell membrane
phototoxicity (cells): are phototoxic
photonicking of φX-174 plasmid DNA (φX-174 plasmid DNA): Only TPBP, BISTAP, BISDPPZ and BISDPPHEN complexes were found to photonick
apparent (intrinsic) binding constant Kapp (Calf thymus DNA): 2.0 E4 M
elution time [1, 7]: about 15 minutes

[Cl-].[Cl][Rh+]12([Cl])([N]3C=CC=c4c3c3c(c5nc6ccccc6nc45)=CC=C[N]31)[N]1C=CC=c3c1c1c(c4nc5ccccc5nc34)=CC=C[N]12 [BISDPPZ, cis-dichlorobis{dipyrido(3,2-a: 2′,3′-c)phenazine)rhodium (III) chloride]
photonicking of φX-174 plasmid DNA (φX-174 plasmid DNA): found to photonick
elution time [1, 7]: around 30 minutes

[Cl-].[Cl-].[Cl-].[Rh+3].c1cnc2c(c1)ccc1cccnc12.c1cnc2c(c1)ccc1cccnc12 [BISPHEN, cis-dichlorobis(1,10-phenanathroline) rhodium(III) chloride]
covalent binding to nucleic acid upon irradiation (nucleic acid): covalently binds to nucleic acid
ability to pass through the cell membrane (cell membrane): Neither of these compounds is able to pass through a cell membrane
photodestruction [2]: virtually unaffected
dark association with DNA (DNA; dark): minimal dark association
association with DNA in the dark (DNA; very low ionic strength): only a minimal association
phototoxicity / virucidal activity against Sindbis virus (Sindbis virus): minimal phototoxicity
frank nicks / nicking of φX-174 supercoiled plasmid DNA upon irradiation (φX-174 plasmid DNA; 311 nm irradiation, Example VIII): does not generate such frank nicks
phototoxicity to single stranded and double stranded naked infectious DNA [4]: phototoxic
phototoxicity against KB cells (KB cells): marginal levels of phototoxicity
interaction with CT DNA in the dark (CT DNA): negligible interaction
activity against bacteriophage φ6 (bacteriophage φ6): did not exhibit any activity
uptake by cells [5]: not taken up
elution time ([1]; 20% acetonitrile in 100 mM ammonium acetate pH 5.4): about 15 minutes
thermal hydrolysis, rank order [3]: OCTBP≅37TMBP>BISPHEN
uptake by cells [6]: not taken up
